The structures appear in SMILES notation.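 48-hour exposure; five concentrations; linearly interpolated endpoints. At the TGI there is no net growth.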

The first test deals with HT29 colon. The test is described as follows: inhibition of tumour cell growth, NCI panel, 48 h.
In turn, `CSC(=S)N(C)C` came in with a TGI of over 100 µM.

In the case of `COc1ccc2c(c1)OCC1Cc3ccccc3OC21` (centres undefined), the TGI is over 100 µM.

With `CCCCC(C(=O)NCCNC(=O)CCC(=O)N(C)O)C(=O)NCCNC(=O)CCC(=O)N(C)O`, the TGI was over 100 µM.

`O=C(CC(C(=O)c1ccsc1)c1ccc2c(c1)OCO2)c1ccccc1` (centres undefined) gave a TGI of over 100 µM.

Compound `CC1(C)C2CCC1(C)[C@H](n1c(=O)n([C@@H]3CC4CCC3(C)C4(C)C)c(=O)n([C@@H]3CC4CCC3(C)C4(C)C)c1=O)C2` showed a TGI of over 100 µM.

`CC(=N/N=C/c1ccccn1)/C(C)=N/N=C(C)/C(C)=N/N=C(C)/C(C)=N/N=C(C)/C(C)=N\N=C\c1ccccn1`: the TGI was over 100 µM.

For another test, the system named is CAKI-1 renal. The test is described as follows: inhibition of tumour cell growth, NCI panel, 48 h.
Turning to `CC1(C)CCCC2OC2CCC(C)(C)C1=O` (centres undefined), the TGI was over 100 µM.

`O=C1NCC2(CCN(CCCC3(c4ccc(F)cc4)OCCO3)CC2)N1c1ccccc1` registered a TGI of over 100 µM.

As to `COc1ccc2c(c1)/C(=C\c1c(Cl)nc3sc(C)cn13)C(=O)N2`, the TGI was 17.1 µM.

`O=C1c2ccccc2-c2c1c(-c1ccc(F)cc1)nc1ccc3ccccc3c21` came in with a TGI of over 100 µM.

Turning to `O=C(/C=C/c1ccc2c(c1)OCO2)CC(=O)C(=O)c1c[nH]c2ccccc12`, the TGI was over 100 µM.

In turn, `O=C(Nc1nccs1)c1c(O)nc2sccn2c1=O` had a TGI of over 10 µM.

In turn, `O=c1[nH]c(=O)n(C2OC(CO)C(O)C2O)c2nc(-c3ccc(-c4ccccc4)cc3)cnc12` (centres undefined) displayed a TGI of over 100 µM.

On to `CC1=NN(c2cccc(Cl)c2)C2(SCC(=O)N2c2nc3ccccc3s2)/C1=C\c1ccccc1O` (centres undefined), for which the TGI was determined as 57.5 µM.

The compound `O=C1NCCN1/N=C/c1c(Cl)n(-c2ccccc2)c2ccccc12` came in with a TGI of 51.7 µM.

Consider `CCCCCCOc1ccc(C(=O)NOC)cc1`, for which the TGI was over 100 µM.

`Cc1c(S(=O)(=O)c2ccccc2)c(N)n(CCN(C)C)c1C` gave a TGI of over 100 µM.

Compound `N=C(N)SCc1ccc2c(c1)Sc1ccccc1O2` registered a TGI of 19.7 µM.

As to `CC(=O)Nc1nc(C#N)[nH]c1C#N`, the TGI is over 100 µM.

The compound `CN(C)c1ccc(C(=N/N=C2\C(=O)Nc3ccccc32)c2ccc(N(C)C)cc2)cc1` yielded a TGI of 19.7 µM.

The compound `COc1ccc(-c2nc(SCC(=O)N/N=C/c3ccc(N(C)C)cc3)[nH]c2-c2ccc(OC)cc2)cc1` returned a TGI of over 100 µM.

Compound `CC1=C[C@@H]2Cc3nc4cc(Cl)ccc4c(N)c3[C@H](C1)C2` returned a TGI of 17.4 µM.

As to `O=[N+]([O-])C(/C=C(\Cl)n1nnc2ccccc21)=C(/Cl)n1nnc2ccccc21`, the TGI was over 100 µM.

The compound `c1c[nH]c(-c2ccc(-c3ccc[nH]3)c3nsnc23)c1` registered a TGI of over 100 µM.

`CSC(=S)N(C)C` yielded a TGI of over 100 µM.

Regarding `COc1ccc2c(c1)OCC1Cc3ccccc3OC21` (centres undefined), the TGI is over 100 µM.

The compound `CCOC(=O)c1c(C)nc2c3ccccc3c(C#N)c(C)n12` yielded a TGI of over 100 µM.

For `CCCCC(C(=O)NCCNC(=O)CCC(=O)N(C)O)C(=O)NCCNC(=O)CCC(=O)N(C)O`, the TGI was over 100 µM.

For the compound `O=C(CC(C(=O)c1ccsc1)c1ccc2c(c1)OCO2)c1ccccc1` (centres undefined), the TGI is over 100 µM.

`CC1(C)C2CCC1(C)[C@H](n1c(=O)n([C@@H]3CC4CCC3(C)C4(C)C)c(=O)n([C@@H]3CC4CCC3(C)C4(C)C)c1=O)C2` returned a TGI of over 100 µM.

`CSc1nsc(-c2ccccc2)[s+]1` came in with a TGI of over 100 µM.

Turning to `CC(=N/N=C/c1ccccn1)/C(C)=N/N=C(C)/C(C)=N/N=C(C)/C(C)=N/N=C(C)/C(C)=N\N=C\c1ccccn1`, the TGI was over 100 µM.

The test system of a further test is SF-268 CNS. The test is described as follows: inhibition of tumour cell growth, NCI panel, 48 h.
`CC1(C)CCCC2OC2CCC(C)(C)C1=O` (centres undefined): the TGI is over 100 µM.

The compound `O=C1NCC2(CCN(CCCC3(c4ccc(F)cc4)OCCO3)CC2)N1c1ccccc1` returned a TGI of over 100 µM.

As to `COc1ccc2c(c1)/C(=C\c1c(Cl)nc3sc(C)cn13)C(=O)N2`, the TGI was 17.3 µM.

As to `O=C1c2ccccc2-c2c1c(-c1ccc(F)cc1)nc1ccc3ccccc3c21`, the TGI is over 100 µM.

Consider `O=C(/C=C/c1ccc2c(c1)OCO2)CC(=O)C(=O)c1c[nH]c2ccccc12`, for which the TGI was over 100 µM.

`O=C(Nc1nccs1)c1c(O)nc2sccn2c1=O`: the TGI was over 10 µM.

Regarding `O=c1[nH]c(=O)n(C2OC(CO)C(O)C2O)c2nc(-c3ccc(-c4ccccc4)cc3)cnc12` (centres undefined), the TGI was over 100 µM.

In the case of `CC1=NN(c2cccc(Cl)c2)C2(SCC(=O)N2c2nc3ccccc3s2)/C1=C\c1ccccc1O` (centres undefined), the TGI came to 64.7 µM.

Compound `O=C1NCCN1/N=C/c1c(Cl)n(-c2ccccc2)c2ccccc12` had a TGI of 59 µM.

In the case of `CCCCCCOc1ccc(C(=O)NOC)cc1`, the TGI was over 100 µM.

Compound `Cc1c(S(=O)(=O)c2ccccc2)c(N)n(CCN(C)C)c1C` returned a TGI of over 100 µM.

As for `N=C(N)SCc1ccc2c(c1)Sc1ccccc1O2`, the TGI is 27.8 µM.

For `CC(=O)Nc1nc(C#N)[nH]c1C#N`, the TGI was over 100 µM.

Take `CN(C)c1ccc(C(=N/N=C2\C(=O)Nc3ccccc32)c2ccc(N(C)C)cc2)cc1`: the TGI came out at 29.2 µM.

The compound `COc1ccc(-c2nc(SCC(=O)N/N=C/c3ccc(N(C)C)cc3)[nH]c2-c2ccc(OC)cc2)cc1` came in with a TGI of over 100 µM.

Regarding `CC1=C[C@@H]2Cc3nc4cc(Cl)ccc4c(N)c3[C@H](C1)C2`, the TGI is 25.8 µM.

As to `O=[N+]([O-])C(/C=C(\Cl)n1nnc2ccccc21)=C(/Cl)n1nnc2ccccc21`, the TGI is over 100 µM.

In turn, `c1c[nH]c(-c2ccc(-c3ccc[nH]3)c3nsnc23)c1` showed a TGI of over 100 µM.

Regarding `CSC(=S)N(C)C`, the TGI is over 100 µM.

On to `COc1ccc2c(c1)OCC1Cc3ccccc3OC21` (centres undefined), for which the TGI was over 100 µM.

`O=C(CC(C(=O)c1ccsc1)c1ccc2c(c1)OCO2)c1ccccc1` (centres undefined) came in with a TGI of over 100 µM.

The compound `CC1(C)C2CCC1(C)[C@H](n1c(=O)n([C@@H]3CC4CCC3(C)C4(C)C)c(=O)n([C@@H]3CC4CCC3(C)C4(C)C)c1=O)C2` registered a TGI of over 100 µM.

With `CSc1nsc(-c2ccccc2)[s+]1`, the TGI is over 100 µM.

`CC(=N/N=C/c1ccccn1)/C(C)=N/N=C(C)/C(C)=N/N=C(C)/C(C)=N/N=C(C)/C(C)=N\N=C\c1ccccn1` returned a TGI of over 100 µM.

For the next test, the system named is TK-10 renal. The test is described as follows: inhibition of tumour cell growth, NCI panel, 48 h.
The compound `CC1(C)CCCC2OC2CCC(C)(C)C1=O` (centres undefined) had a TGI of over 100 µM.

`O=C1NCC2(CCN(CCCC3(c4ccc(F)cc4)OCCO3)CC2)N1c1ccccc1` came in with a TGI of over 100 µM.

Turning to `COc1ccc2c(c1)/C(=C\c1c(Cl)nc3sc(C)cn13)C(=O)N2`, the TGI was 19.1 µM.

In the case of `O=C(/C=C/c1ccc2c(c1)OCO2)CC(=O)C(=O)c1c[nH]c2ccccc12`, the TGI is over 100 µM.

`O=C(Nc1nccs1)c1c(O)nc2sccn2c1=O` registered a TGI of over 10 µM.

`O=c1[nH]c(=O)n(C2OC(CO)C(O)C2O)c2nc(-c3ccc(-c4ccccc4)cc3)cnc12` (centres undefined) displayed a TGI of over 100 µM.

The compound `CC1=NN(c2cccc(Cl)c2)C2(SCC(=O)N2c2nc3ccccc3s2)/C1=C\c1ccccc1O` (centres undefined) registered a TGI of over 100 µM.

The compound `O=C1NCCN1/N=C/c1c(Cl)n(-c2ccccc2)c2ccccc12` displayed a TGI of 43.6 µM.

The compound `CCCCCCOc1ccc(C(=O)NOC)cc1` yielded a TGI of over 100 µM.

In the case of `Cc1c(S(=O)(=O)c2ccccc2)c(N)n(CCN(C)C)c1C`, the TGI is over 100 µM.

In turn, `N=C(N)SCc1ccc2c(c1)Sc1ccccc1O2` yielded a TGI of 14.1 µM.

Compound `CC(=O)Nc1nc(C#N)[nH]c1C#N` registered a TGI of over 100 µM.

Consider `CN(C)c1ccc(C(=N/N=C2\C(=O)Nc3ccccc32)c2ccc(N(C)C)cc2)cc1`, for which the TGI stood at 28.2 µM.

(Values after PubChem BioAssay (NCI).)
